The values that follow come from patent publication US11213535B2, “Composition containing phytic acid, magnesium and polyphenols for the treatment or prevention of renal lithiasis” (UNIVERSITAT DE LES ILLES BALEARS, priority 2014, dated 2022).

The nature of this test: induction time of calcium oxalate crystallization in synthetic urine. Particulars: 200 mg/L calcium and 50 mg/L oxalate. As for the experimental part: Thus, when there is neither magnesium nor phytate, the calcium oxalate takes 1 minute to crystallize. This time increases up to 10 minutes when […] magnesium is added and, in turn, it increases up to 44 minutes if, in addition to the 10 mg/L magnesium, 1 mg/L phytate is added.

Regarding `[Mg+2]` [Mg, magnesium], the “induction times of crystallization t” value reads like this: (0 mg/L phytate, 25 mg/L Mg) 1.5 min; (0 mg/L phytate, 75 mg/L Mg) 6 min; (0 mg/L phytate, 100 mg/L Mg) 10 min. Also, the “time calcium oxalate takes to crystallize (induction time)” value (100 mg/L magnesium, no phytate) stood at 10 min.
As for `O=P(O)(O)O[C@H]1[C@H](OP(=O)(O)O)[C@@H](OP(=O)(O)O)[C@H](OP(=O)(O)O)[C@@H](OP(=O)(O)O)[C@H]1OP(=O)(O)O` [phytate, myo-inositol-hexaphosphate], the “induction times of crystallization t” value (0.5 mg/L phytate, 0 mg/L Mg) is 3 min; the “induction times of crystallization t” value (0.75 mg/L phytate, 0 mg/L Mg) is 4 min; the “induction times of crystallization t” value (1 mg/L phytate, 0 mg/L Mg) is 6.5 min.
